The record followed here is patent publication USRE43135E1, “Method of improving dough and bread quality” (Danisco A/S, priority 2001, dated 2012).

A short description of assay [1]: Model dough, GLC analysis of non-polar lipids (cowpea LAH). The class given is biochemical, wheat. Conditions: Example 1, FIG. 7, compared with activity on polar lipids and free fatty acid formation. The method, then: 10 g of flour and 0.020 g sodium chloride were mixed in a 10 g Farinograph mixing bowl for 1 minute either with or without enzymes. Subsequently water (500 Brabender units) was added and mixed for 5 minutes at 30° C. After mixing the dough was placed at 32° C. for 1 hour, and then frozen and freeze dried prior to further analysis.
Perkin Elmer 8420 Capillary Gas Chromatography equipped with WCOT fused silica column 12.5 m×0.25 mm ID×0.1 μm 5% phenyl-methyl-silicone (CP Sil 8 CB from Crompack). • Carrier: Helium. • Injection: 1.5 μl with split. • Detector: FID. 385° C.
Sample preparation: 50 mg wheat lipid was dissolved in 12 ml heptane: pyridine 2:1 containing an internal standard heptadecane, 2 mg/ml. 500 μl of the sample was transferred to a crimp vial. 100 μl MSTFA (N-Methyl-N-trimethylsilyltrifluoracetamid) was added and the reaction incubated for 15 minutes at 90° C. Calculation: Response factors for mono-di-triglycerides and free fatty acid were determined from reference mixtures of these components. Based on these response factors the mono-di-triglycerides and free fatty acids in wheat lipids were calculated.
The non-polar lipids were analysed by GLC.

Assay [2] is described as follows: Enzyme-catalysed degumming of vegetable oil. The class given is biochemical. The note with it: rapeseed oil degumming; preliminary results. As for the experimental part: Vegetable oil, in particular rapeseed oil, was treated with LAH isolated from cowpea to effect degumming of the oil. The process used was essentially as per the enzyme-catalysed degumming process of vegetable oil generally taught in Buchold, H. (Fat Sci. Technol. 95 Jahrgang nr. 8, 1993, pp300-305), excepting that LAH was used.

Consider “Cowpea LAH: lipolytic acyl hydrolase (E.C. 3.1.1.26) isolated from cowpea (Vigna unguiculata) leaves; hydrolyses glycolipid and phospholipid, not triglyceride”, for which the “activity on triglyceride (GLC analysis)” value in assay [1] is recorded as “no activity”. Further, in assay [2], the “amounts of polar lipids in the oil” value is reported as “reduce the amounts of polar lipids” and the “triglyceride levels of the oil” value is given as “not significantly affecting”.
